Data published in patent publication US8362017B2, “C-kit modulators and methods of use” (Exelixis, Inc., priority 2003, dated 2013).

These compounds were tested against c-Kit kinase (Homo sapiens, UniProt P10721) (assay: c-Kit biochemical activity assay (AlphaScreen)). Conditions: biotinylated poly(Glu, Tyr) substrate, 1 hr at ambient temperature.
Procedure: Kinase activity and compound inhibition are investigated using one or more of the three assay formats described below. The ATP concentrations for each assay are selected to be close to the Michaelis-Menten constant (KM) for each individual kinase. Dose-response experiments are performed at 10 different inhibitor concentrations in a 384-well plate format. The data are fitted to four-parameter equation (2) below; where Y is the observed signal, X is the inhibitor concentration, Min is the background signal in the absence of enzyme (0% enzyme activity), Max is the signal in the absence of inhibitor (100% enzyme activity), IC50 is the inhibitor concentration at 50% enzyme inhibition and H represents the empirical Hill's slope to measure the cooperativity. Typically H is close to unity. Y=Min+(Max−Min)/(1+(X/IC50)^H) Equation (2) c-Kit Assay
c-Kit biochemical activity was assessed using AlphaScreen™ (Perldn Elmer) technology, described above. Test compounds, ATP, biotinylated poly(Glu, Tyr) and c-Kit kinase were combined in a volume of 20 μL in a 384-well white, medium binding microtiter plate (Greiner). Reaction mixtures were incubated for 1 hr at ambient temperature. Reactions were quenched by addition of 10 μL of 15-30 mg/mL AlphaScreen bead suspension containing 75 mM Hepes, pH 7.4, 300 mM NaCl, 120 mM EDTA, 0.3% BSA and 0.03% Tween-20. After 16 hr incubation at ambient temperature plates were read using an AlphaQuest reader (Perkin Elmer).

Sequence of c-Kit kinase (P10721 26-976): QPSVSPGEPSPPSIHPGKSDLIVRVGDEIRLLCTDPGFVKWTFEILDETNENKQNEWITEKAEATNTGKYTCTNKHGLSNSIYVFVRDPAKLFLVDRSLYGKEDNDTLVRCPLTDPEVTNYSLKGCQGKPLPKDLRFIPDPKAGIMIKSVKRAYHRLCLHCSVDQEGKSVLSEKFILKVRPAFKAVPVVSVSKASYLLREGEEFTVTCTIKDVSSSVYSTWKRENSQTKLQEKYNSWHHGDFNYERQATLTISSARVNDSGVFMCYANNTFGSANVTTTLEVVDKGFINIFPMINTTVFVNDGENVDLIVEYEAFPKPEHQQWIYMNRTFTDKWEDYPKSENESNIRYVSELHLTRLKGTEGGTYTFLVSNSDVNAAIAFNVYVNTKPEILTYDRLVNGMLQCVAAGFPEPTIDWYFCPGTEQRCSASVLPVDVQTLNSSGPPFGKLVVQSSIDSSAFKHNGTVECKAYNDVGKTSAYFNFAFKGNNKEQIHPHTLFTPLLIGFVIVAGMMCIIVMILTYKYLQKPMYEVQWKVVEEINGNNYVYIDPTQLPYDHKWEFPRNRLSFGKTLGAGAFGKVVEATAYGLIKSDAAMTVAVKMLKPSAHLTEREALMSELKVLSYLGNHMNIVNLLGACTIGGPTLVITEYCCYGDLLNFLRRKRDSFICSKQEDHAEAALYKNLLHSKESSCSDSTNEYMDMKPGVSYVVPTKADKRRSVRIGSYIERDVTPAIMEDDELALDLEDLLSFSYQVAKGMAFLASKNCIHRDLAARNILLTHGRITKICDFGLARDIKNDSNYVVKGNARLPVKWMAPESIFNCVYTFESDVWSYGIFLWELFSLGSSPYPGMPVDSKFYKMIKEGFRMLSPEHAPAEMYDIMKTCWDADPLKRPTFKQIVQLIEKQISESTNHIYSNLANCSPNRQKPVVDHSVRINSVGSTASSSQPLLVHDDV

Row | IC50 [nM] | SMILES
1 | 500 to 5000 | O=C(NCc1ccc(-c2cn[nH]c2)cc1)Nc1ccc(Cl)c(C(F)(F)F)c1 [Example 248, N-[4-chloro-3-(trifluoromethyl)phenyl]-N′-{[4-(1H-pyrazol-4-yl)phenyl]methyl}urea]
2 | 500 to 5000 | O=C(Nc1ccc(Cl)c(C(F)(F)F)c1)OCc1ccc(-c2cn[nH]c2)cc1 [Example 267, [4-(1H-pyrazol-4-yl)phenyl]methyl [4-chloro-3-(trifluoromethyl)phenyl]carbamate]
3 | 50 to 500 | Nc1ncc(-c2ccc(CNC(=O)Nc3ccc(Cl)c(C(F)(F)F)c3)cc2)nc1C(=O)NC1CCCNC1 (stereo not shown) [Example 242, 3-amino-6-(4-{[({[4-chloro-3-(trifluoromethyl)phenyl]amino}carbonyl)amino]methyl}phenyl)-N-piperidin-3-ylpyrazine-2-carboxamide]
4 | 500 to 5000 | CSc1ccc(-c2cccc(CNC(=O)Nc3ccc(Cl)c(C(F)(F)F)c3)c2)nc1 [Example 258, N-[4-chloro-3-(trifluoromethyl)phenyl]-N′-({3-[5-(methylthio)pyridin-2-yl]phenyl}methyl)urea]
5 | 500 to 5000 | O=C(Nc1ccc(Cl)c(C(F)(F)F)c1)OCc1ccc(-n2cnnn2)cc1 [Example 235, [4-(1H-tetrazol-1-yl)phenyl]methyl [4-chloro-3-(trifluoromethyl)phenyl]carbamate]
6 | 50 to 500 | O=C(NCc1cccc(-c2cn[nH]c2)c1)Nc1ccc(Cl)c(C(F)(F)F)c1 [Example 247, N-[4-chloro-3-(trifluoromethyl)phenyl]-N′-{[3-(1H-pyrazol-4-yl)phenyl]methyl}urea]
7 | 500 to 5000 | O=C(NCc1ccc(-c2cncc3ccccc23)cc1)Nc1ccc(Cl)c(C(F)(F)F)c1 [Example 264, N-[4-chloro-3-(trifluoromethyl)phenyl]-N′-[(4-isoquinolin-4-ylphenyl)methyl]urea]
8 | 500 to 5000 | O=C(NCc1ccc(-c2cccnc2F)cc1)Nc1ccc(Cl)c(C(F)(F)F)c1 [Example 254, N-[4-chloro-3-(trifluoromethyl)phenyl]-N′-{[4-(2-fluoropyridin-3-yl)phenyl]methyl}urea]
9 | 500 to 5000 | Cc1ccc(-c2cccc(COC(=O)Nc3ccc(Cl)c(C(F)(F)F)c3)c2)c(C)n1 [Example 259, [3-(2,6-dimethylpyridin-3-yl)phenyl]methyl [4-chloro-3-(trifluoromethyl)phenyl]carbamate]
10 | 50 to 500 | O=C(Nc1cccc(C(F)(F)F)c1)OCc1cccc(-n2cnnn2)c1 [Example 255, [3-(1H-tetrazol-1-yl)phenyl]methyl [3-(trifluoromethyl)phenyl]carbamate]
11 | 500 to 5000 | O=C(Nc1cccc(C(F)(F)F)n1)OCc1cccc(-n2cnnn2)c1 [Example 256, [3-(1H-tetrazol-1-yl)phenyl]methyl [6-(trifluoromethyl)pyridin-2-yl]carbamate]
12 | 50 to 500 | O=C(Nc1cc(C(F)(F)F)ccn1)OCc1cccc(-n2cnnn2)n1 [Example 265, [6-(1H-tetrazol-1-yl)pyridin-2-yl]methyl [4-(trifluoromethyl)pyridin-2-yl]carbamate]
13 | 500 to 5000 | COC(=O)c1cn(-c2cccc(OCC(=O)Nc3ccc(Cl)c(C(F)(F)F)c3)c2)nn1 [Example 29, methyl 1-{3-[(2-{[4-chloro-3-(trifluoromethyl)phenyl]amino}-2-oxoethyl)oxy]phenyl}-1H-1,2,3-triazole-4-carboxylate]
